Assay results published in ChEMBL document CHEMBL5291721, “A preclinical secondary pharmacology resource illuminates target-adverse drug reaction associations of marketed drugs” (Nat Commun, 2023).

Assays:
B2 bradykinin receptor = molecular target: T1, B2 bradykinin receptor (Homo sapiens, UniProt P30411)
T1 sequence (P30411 whole entry): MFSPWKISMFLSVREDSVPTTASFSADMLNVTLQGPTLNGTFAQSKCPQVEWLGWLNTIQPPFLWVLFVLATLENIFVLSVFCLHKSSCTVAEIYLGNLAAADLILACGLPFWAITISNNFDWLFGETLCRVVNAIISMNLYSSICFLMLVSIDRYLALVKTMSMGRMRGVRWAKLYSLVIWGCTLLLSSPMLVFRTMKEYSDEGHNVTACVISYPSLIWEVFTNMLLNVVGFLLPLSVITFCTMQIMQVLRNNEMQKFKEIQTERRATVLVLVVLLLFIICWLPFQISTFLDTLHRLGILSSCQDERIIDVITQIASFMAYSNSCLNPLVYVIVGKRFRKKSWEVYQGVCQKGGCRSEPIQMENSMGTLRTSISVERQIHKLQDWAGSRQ

D(1A) dopamine receptor = D(1A) dopamine receptor (Homo sapiens, UniProt P21728); type: functional, cell-based
Endothelin-1 receptor = molecular target: T2, Endothelin-1 receptor (Homo sapiens, UniProt P25101)
T2 sequence (P25101 whole entry): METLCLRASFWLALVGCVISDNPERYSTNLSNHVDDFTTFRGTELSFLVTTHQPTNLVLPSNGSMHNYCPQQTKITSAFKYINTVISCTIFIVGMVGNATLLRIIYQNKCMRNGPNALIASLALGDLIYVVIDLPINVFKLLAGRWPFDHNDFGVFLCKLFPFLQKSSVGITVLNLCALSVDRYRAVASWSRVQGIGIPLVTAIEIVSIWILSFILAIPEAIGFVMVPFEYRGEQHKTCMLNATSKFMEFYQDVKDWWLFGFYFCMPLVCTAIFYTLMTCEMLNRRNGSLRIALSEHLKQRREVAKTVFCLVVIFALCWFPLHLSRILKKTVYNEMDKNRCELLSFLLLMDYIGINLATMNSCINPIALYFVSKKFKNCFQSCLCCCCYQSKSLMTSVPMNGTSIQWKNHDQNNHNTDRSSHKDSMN

Mu-type opioid receptor [1] = molecular target: T3, Mu-type opioid receptor (Homo sapiens, UniProt P35372); assay: biochemical; type: functional
[2] = molecular target: Beta-2 adrenergic receptor (Homo sapiens, UniProt P07550)
Cannabinoid receptor 1 = Cannabinoid receptor 1 (Homo sapiens, UniProt P21554); type: functional, cell-based
Progesterone receptor [3] = molecular target: T4, Progesterone receptor (Homo sapiens, UniProt P06401); type: functional
T4 sequence (P06401 whole entry): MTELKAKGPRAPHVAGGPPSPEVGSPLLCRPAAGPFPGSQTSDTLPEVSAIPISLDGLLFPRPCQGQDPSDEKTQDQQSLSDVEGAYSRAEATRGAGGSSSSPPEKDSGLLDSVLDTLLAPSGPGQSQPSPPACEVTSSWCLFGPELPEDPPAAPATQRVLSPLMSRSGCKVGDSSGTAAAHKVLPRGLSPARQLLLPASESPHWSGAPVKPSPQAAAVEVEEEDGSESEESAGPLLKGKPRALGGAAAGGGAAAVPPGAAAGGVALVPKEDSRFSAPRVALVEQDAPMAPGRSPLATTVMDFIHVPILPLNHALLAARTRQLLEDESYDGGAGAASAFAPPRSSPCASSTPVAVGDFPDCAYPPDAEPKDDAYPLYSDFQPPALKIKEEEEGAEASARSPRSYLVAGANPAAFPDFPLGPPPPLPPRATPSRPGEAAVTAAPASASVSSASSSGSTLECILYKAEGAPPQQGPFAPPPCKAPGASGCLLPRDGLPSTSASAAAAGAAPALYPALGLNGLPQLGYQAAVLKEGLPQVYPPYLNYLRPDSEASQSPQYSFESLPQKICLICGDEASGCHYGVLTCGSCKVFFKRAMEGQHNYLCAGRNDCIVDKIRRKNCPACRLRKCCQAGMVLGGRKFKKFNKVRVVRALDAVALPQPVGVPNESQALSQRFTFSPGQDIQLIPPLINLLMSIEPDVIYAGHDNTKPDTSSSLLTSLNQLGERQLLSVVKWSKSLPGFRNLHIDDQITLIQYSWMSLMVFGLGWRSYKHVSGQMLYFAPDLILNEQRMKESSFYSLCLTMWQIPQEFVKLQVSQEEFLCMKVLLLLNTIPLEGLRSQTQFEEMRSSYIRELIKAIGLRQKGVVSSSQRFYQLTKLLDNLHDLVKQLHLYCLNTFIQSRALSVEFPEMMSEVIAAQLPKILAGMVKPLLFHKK

[4] = molecular target: T5, Alpha-2A adrenergic receptor (Homo sapiens, UniProt P08913); type: functional, cell-based
T5 sequence (P08913 whole entry): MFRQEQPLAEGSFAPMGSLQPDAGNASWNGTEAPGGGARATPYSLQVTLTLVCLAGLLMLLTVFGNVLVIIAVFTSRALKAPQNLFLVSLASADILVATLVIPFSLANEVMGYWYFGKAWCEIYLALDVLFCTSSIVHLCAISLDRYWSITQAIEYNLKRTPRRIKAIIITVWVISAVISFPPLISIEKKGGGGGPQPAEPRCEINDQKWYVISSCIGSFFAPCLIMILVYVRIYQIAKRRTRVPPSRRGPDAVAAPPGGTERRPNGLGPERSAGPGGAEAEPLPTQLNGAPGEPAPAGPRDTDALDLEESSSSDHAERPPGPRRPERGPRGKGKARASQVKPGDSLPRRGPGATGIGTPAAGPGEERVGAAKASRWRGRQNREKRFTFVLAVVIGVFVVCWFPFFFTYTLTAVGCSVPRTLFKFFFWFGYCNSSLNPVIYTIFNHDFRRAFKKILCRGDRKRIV

Progesterone receptor [5] = molecular target: T4, Progesterone receptor
[6] = molecular target: 3',5'-cyclic-AMP phosphodiesterase 4D (Homo sapiens, UniProt Q08499); type: functional
Mu-type opioid receptor [7] = molecular target: T3, Mu-type opioid receptor
[8] = molecular target: 5-hydroxytryptamine receptor 2B (Homo sapiens, UniProt P41595)
[9] = molecular target: Voltage-dependent N-type calcium channel subunit alpha-1B (Rattus norvegicus, UniProt Q02294); type: functional
Also: assay procedure not described here.

Chain of 3',5'-cyclic-AMP phosphodiesterase 4D (Q08499 whole entry): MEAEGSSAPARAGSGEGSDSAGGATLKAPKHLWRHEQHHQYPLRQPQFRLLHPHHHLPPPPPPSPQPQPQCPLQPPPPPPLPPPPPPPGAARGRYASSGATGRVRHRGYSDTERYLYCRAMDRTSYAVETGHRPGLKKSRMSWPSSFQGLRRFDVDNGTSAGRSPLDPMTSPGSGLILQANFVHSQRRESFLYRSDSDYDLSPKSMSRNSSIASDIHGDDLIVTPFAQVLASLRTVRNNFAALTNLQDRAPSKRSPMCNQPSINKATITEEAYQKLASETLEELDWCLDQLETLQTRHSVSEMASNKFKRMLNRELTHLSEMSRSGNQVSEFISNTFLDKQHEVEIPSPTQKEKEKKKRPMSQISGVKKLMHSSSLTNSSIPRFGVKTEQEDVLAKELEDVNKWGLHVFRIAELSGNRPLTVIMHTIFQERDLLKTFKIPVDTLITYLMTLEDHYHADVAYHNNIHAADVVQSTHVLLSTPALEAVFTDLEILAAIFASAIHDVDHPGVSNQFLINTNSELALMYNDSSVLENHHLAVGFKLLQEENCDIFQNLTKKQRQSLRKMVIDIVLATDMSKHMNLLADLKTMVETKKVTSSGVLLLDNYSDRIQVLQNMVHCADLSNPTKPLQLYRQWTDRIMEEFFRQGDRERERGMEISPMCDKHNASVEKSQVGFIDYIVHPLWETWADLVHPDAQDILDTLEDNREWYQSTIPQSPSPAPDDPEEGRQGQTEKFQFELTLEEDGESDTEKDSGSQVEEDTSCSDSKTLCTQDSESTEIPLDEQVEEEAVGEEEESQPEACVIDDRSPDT
T3 sequence (P35372 whole entry): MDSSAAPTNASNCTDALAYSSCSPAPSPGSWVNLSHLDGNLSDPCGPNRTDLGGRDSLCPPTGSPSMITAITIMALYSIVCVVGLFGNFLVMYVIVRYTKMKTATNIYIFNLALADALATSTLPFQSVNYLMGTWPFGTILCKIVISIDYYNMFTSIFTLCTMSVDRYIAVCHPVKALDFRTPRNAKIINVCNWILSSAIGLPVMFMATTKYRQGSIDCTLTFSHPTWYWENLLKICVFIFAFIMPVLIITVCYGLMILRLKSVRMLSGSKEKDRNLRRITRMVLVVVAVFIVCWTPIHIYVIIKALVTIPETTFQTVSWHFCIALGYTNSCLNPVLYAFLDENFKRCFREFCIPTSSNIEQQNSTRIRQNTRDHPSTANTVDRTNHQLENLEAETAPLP
Chain of Beta-2 adrenergic receptor (P07550 whole entry): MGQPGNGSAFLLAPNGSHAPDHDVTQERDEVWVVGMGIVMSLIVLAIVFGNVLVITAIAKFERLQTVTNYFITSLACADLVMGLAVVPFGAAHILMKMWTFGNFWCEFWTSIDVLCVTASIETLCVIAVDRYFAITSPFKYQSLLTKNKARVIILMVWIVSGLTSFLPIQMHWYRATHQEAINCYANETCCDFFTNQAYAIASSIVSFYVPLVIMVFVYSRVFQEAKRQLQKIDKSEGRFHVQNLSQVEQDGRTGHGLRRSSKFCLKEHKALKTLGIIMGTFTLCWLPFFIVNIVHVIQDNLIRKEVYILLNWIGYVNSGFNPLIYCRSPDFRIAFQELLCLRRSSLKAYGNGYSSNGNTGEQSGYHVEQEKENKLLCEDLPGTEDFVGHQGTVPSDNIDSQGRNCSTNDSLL
Chain of D(1A) dopamine receptor (P21728 whole entry): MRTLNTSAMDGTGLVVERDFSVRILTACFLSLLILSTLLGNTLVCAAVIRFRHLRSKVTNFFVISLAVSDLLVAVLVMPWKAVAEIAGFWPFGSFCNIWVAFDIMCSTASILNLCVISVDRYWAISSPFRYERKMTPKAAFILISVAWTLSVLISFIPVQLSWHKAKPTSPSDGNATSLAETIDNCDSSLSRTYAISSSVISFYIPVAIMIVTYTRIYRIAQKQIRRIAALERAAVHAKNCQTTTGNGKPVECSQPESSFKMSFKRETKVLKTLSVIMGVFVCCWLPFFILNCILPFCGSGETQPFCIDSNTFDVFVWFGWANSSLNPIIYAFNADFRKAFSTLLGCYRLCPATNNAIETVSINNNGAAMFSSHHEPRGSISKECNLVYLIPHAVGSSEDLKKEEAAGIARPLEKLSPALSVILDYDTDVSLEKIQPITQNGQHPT
Chain of Cannabinoid receptor 1 (P21554 whole entry): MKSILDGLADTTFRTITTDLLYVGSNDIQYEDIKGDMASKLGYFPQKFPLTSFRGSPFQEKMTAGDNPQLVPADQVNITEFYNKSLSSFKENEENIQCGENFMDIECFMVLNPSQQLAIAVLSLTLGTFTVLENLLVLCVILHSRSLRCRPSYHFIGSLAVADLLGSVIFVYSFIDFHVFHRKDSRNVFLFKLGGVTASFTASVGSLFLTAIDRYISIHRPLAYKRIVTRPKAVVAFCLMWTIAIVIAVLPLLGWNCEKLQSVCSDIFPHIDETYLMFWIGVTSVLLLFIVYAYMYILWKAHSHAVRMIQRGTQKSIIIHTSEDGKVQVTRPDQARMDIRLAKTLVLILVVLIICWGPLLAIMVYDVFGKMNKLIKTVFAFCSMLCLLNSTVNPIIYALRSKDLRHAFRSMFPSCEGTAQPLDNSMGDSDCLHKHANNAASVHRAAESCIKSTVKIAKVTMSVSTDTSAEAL
Chain of Voltage-dependent N-type calcium channel subunit alpha-1B (Q02294 whole entry): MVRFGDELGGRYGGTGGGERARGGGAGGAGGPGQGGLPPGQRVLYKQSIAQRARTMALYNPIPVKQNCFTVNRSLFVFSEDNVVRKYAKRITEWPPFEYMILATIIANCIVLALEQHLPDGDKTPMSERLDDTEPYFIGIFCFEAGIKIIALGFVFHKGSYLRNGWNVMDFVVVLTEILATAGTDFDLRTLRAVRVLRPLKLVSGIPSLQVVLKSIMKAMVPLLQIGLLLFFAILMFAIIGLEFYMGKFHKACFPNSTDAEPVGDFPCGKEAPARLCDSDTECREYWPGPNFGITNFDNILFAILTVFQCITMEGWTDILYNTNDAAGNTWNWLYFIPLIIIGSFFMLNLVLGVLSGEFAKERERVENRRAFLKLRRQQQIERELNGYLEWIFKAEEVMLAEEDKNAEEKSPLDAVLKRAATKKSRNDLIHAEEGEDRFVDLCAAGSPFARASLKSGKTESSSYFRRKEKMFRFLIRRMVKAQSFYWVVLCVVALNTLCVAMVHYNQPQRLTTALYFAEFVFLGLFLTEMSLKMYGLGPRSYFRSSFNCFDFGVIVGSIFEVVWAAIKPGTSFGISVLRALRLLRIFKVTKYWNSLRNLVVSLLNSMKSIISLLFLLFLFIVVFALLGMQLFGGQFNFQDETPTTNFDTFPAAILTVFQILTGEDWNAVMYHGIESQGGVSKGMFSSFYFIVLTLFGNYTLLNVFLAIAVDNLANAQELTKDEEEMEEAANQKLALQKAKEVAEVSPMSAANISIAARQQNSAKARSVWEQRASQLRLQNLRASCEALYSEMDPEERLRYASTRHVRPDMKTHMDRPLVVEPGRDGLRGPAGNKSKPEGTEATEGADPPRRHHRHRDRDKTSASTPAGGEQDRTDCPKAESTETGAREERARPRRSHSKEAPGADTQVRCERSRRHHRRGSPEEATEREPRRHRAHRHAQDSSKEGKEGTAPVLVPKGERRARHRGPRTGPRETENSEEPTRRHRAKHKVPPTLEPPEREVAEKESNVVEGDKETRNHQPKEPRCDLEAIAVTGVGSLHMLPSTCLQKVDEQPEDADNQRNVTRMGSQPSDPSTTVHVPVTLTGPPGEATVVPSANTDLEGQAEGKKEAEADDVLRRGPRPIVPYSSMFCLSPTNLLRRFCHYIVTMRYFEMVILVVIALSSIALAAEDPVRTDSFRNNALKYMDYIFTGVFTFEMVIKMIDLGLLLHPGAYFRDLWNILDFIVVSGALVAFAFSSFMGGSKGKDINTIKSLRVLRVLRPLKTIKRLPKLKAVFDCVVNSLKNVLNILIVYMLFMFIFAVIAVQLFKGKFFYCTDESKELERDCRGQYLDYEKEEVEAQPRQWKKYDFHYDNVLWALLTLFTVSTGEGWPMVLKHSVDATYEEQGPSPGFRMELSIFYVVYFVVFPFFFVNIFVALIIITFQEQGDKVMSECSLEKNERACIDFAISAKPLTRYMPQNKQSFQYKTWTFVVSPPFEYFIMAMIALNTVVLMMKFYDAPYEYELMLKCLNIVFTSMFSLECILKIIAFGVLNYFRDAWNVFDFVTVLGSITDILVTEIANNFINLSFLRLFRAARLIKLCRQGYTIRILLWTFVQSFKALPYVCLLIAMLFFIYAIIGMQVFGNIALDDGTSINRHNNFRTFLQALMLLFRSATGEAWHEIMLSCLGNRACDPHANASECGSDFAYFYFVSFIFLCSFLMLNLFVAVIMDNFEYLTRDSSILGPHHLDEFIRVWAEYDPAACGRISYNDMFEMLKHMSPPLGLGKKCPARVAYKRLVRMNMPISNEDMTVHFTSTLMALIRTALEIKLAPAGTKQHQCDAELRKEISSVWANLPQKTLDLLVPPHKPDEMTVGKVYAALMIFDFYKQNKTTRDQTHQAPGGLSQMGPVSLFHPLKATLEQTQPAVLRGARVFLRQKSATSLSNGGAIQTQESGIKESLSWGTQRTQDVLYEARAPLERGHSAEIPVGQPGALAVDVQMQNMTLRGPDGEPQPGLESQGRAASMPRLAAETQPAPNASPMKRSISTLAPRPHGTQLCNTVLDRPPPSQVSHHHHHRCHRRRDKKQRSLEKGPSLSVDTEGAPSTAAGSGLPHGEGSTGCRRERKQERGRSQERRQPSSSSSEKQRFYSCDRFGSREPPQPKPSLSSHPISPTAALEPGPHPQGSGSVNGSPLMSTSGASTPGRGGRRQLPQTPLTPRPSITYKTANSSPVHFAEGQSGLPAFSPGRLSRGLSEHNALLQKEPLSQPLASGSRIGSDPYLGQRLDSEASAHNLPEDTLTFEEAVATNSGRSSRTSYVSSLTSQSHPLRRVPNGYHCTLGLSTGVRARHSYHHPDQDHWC

| Structure (SMILES) | AC50 (B2 bradykinin receptor) [µM] | AC50 (D(1A) dopamine receptor) [µM] | AC50 (Endothelin-1 receptor) [µM] | AC50 (Mu-type opioid receptor [1]) [µM] | AC50 [2] [µM] | AC50 (Cannabinoid receptor 1) [µM] | AC50 (Progesterone receptor [3]) [µM] | AC50 [4] [µM] | AC50 (Progesterone receptor [5]) [µM] | AC50 [6] [µM] | AC50 (Mu-type opioid receptor [7]) [µM] | AC50 [8] [µM] | AC50 [9] [µM] |
| --- | --- | --- | --- | --- | --- | --- | --- | --- | --- | --- | --- | --- | --- |
| CC(/C=C1\SC(=S)N(CC(=O)O)C1=O)=C\c1ccccc1 | > 10 | > 30 | > 30 | > 30 | > 30 | > 30 | > 30 | > 30 |  |  |  |  |  |
| O=C1CN2Cc3c(ccc(Cl)c3Cl)N=C2N1 [ANAGRELIDE] | > 30 | > 10 |  |  | > 10 |  |  | > 10 | > 30 | > 30 | > 30 |  |  |
| CNCC[C@@H](Oc1ccccc1C)c1ccccc1 [ATOMOXETINE] | > 30 | > 30 | > 30 | 18 |  | > 30 | > 30 |  |  | > 30 |  |  |  |
| CCc1oc2ccccc2c1C(=O)c1cc(Br)c(O)c(Br)c1 [BENZBROMARONE] | > 30 | > 30 | > 30 |  | > 30 | > 30 | 3.8 | 3.74 | > 30 |  | 26 |  |  |
| C=C(C)[C@@H]1CCC(C)=C[C@H]1c1c(O)cc(CCCCC)cc1O [CANNABIDIOL] |  | > 30 | > 30 |  |  |  | > 10 | > 10 |  | > 30 |  |  |  |
| CNCC[C@H](Oc1cccc2ccccc12)c1cccs1 [DULOXETINE] | > 30 | > 10 |  |  |  | > 30 |  | > 10 | > 30 |  | 12 |  |  |
| CC1(C)O[C@@H]2C[C@H]3[C@@H]4C[C@H](F)C5=CC(=O)C=C[C@]5(C)[C@H]4[C@@H](O)C[C@]3(C)[C@]2(C(=O)CO)O1 [FLUNISOLIDE] |  | > 30 | > 30 |  |  | > 30 | > 3 | 2 |  | > 30 | > 30 |  |  |
| Nc1nc(O)c2ncn(COC(CO)CO)c2n1 [GANCICLOVIR] | > 30 | > 30 | > 30 | > 30 | > 30 | > 30 | > 30 | > 30 |  | > 30 |  |  |  |
| CC(=O)/N=c1/sc(S(N)(=O)=O)nn1C [METHAZOLAMIDE] | > 10 | > 10 |  | > 30 | > 10 |  | > 10 | > 10 |  | > 30 | > 30 |  |  |
| CC[C@@H](CO)NC(=O)[C@@H]1C=C2c3cccc4[nH]cc(c34)C[C@H]2N(C)C1 [METHYLERGONOVINE] | > 30 | 0.0031 | > 30 | > 30 |  | > 30 |  | 17 |  | > 30 |  | 0.0037 |  |
| CC(=O)Oc1ccccc1C(=O)Nc1ncc([N+](=O)[O-])s1 [NITAZOXANIDE] | 4.9 | > 30 | 12 | > 30 | 7.8 | > 30 | > 30 | 19 |  | > 30 |  |  |  |
| CNCCC=C1c2ccccc2CCc2ccccc21 [NORTRIPTYLINE] | > 30 | > 30 | > 30 | > 30 |  |  | > 30 |  |  | 7.5 |  |  |  |
| COc1ccc(Cc2nccc3cc(OC)c(OC)cc23)cc1OC [PAPAVERINE] | > 30 | > 30 | > 30 | > 30 |  | > 30 | > 30 | > 30 |  |  |  |  |  |
| O=C1NC(=O)C(c2ccccc2)(c2ccccc2)N1 [PHENYTOIN] | > 30 | > 30 | > 30 |  | > 10 | > 30 | > 30 | > 30 | > 30 | > 30 | > 30 |  | > 10 |
| CNC(=O)c1cc(Oc2ccc(NC(=O)Nc3ccc(Cl)c(C(F)(F)F)c3)c(F)c2)ccn1 [REGORAFENIB] |  | > 30 |  |  |  |  | > 30 |  |  | > 30 |  |  |  |
| NC(=O)c1ncn([C@@H]2O[C@H](CO)[C@@H](O)[C@H]2O)n1 [RIBAVIRIN] | > 10 | > 10 |  |  | > 10 | > 30 | > 10 | > 10 |  | > 30 | > 30 |  |  |
| O=C(Nc1c(Cl)cncc1Cl)c1ccc(OC(F)F)c(OCC2CC2)c1 [ROFLUMILAST] | > 30 | > 30 | > 30 | > 30 | > 30 | > 30 |  | > 30 |  |  |  |  |  |
| CC[C@H]1OC(=O)[C@H](C)[C@@H](O[C@H]2C[C@@](C)(OC)[C@@H](O)[C@H](C)O2)[C@H](C)[C@@H](O[C@@H]2O[C@H](C)C[C@H](N(C)C)[C@H]2O)[C@](C)(O)C[C@@H](C)/C(=N\OCOCCOC)[C@H](C)[C@@H](O)[C@]1(C)O [ROXITHROMYCIN] |  | > 30 | > 30 |  |  | > 30 | > 30 | > 30 |  | > 30 | > 30 |  |  |
| CC(C)N(CCCCOCC(=O)NS(C)(=O)=O)c1cnc(-c2ccccc2)c(-c2ccccc2)n1 [SELEXIPAG] | > 10 | > 30 | > 30 | > 30 | > 30 | 28 | > 30 | > 30 |  | 4.81 | > 30 |  |  |
| Cn1c(=O)c2[nH]cnc2n(C)c1=O [THEOPHYLLINE] | > 30 | > 10 | > 30 |  | > 10 | > 30 |  | > 10 | > 30 |  | > 30 |  | > 10 |
| Cc1cc(CC(=O)O)n(C)c1C(=O)c1ccc(Cl)cc1 [ZOMEPIRAC] | > 30 | > 30 | > 30 | > 30 |  | > 10 | > 30 | > 30 |  | > 30 |  |  |  |
